Assay results as given in US20140178479A1, “Concentrated Felbamate Formulations for Parenteral Administration” (PEROSPHERE, INC., priority 2011, published 2014).

Columns and labels:
CYP2C19 = CYP2C19 (Homo sapiens, UniProt P33261); conditions: cited from earlier work
[1] = cited from earlier work
[2] = SEM imaging of precipitated microparticles; assay type: physicochemical
Method: Felbamate was dissolved in dimethyl sulfoxide to create a five weight per volume percent solution. The felbamate solution was introduced into one hundred times the volume of a one weight per volume percent polysorbate 20 aqueous solution stirred at 1,500 revolutions per minute using an overhead mixer equipped with an impeller blade. The resultant microparticles of felbamate were imaged using SEM. […] Under the same experimental conditions, Span 80 was substituted for polysorbate 20.
Felbamate was dissolved in glycerin heated above 120° C. to create a 5% weight per volume solution. The felbamate solution was introduced into one hundred times the volume of a one weight per volume percent polysorbate 20 aqueous solution stirred at 1,500 revolutions per minute using an overhead mixer equipped with an impeller blade. The resultant microparticles of felbamate were imaged using SEM.

[3] = cited from earlier work; remark: listed apart in the source
[4] = supersaturated solution: remaining in solution after heating and cooling; assay type: physicochemical
Method: Felbamate was added at a concentration of up to 20 weight per volume percent to polyethylene glycol 300 and polyethylene glycol 400. Solutions were heated above 70° C. after which the felbamate dissolved.
Felbamate was added at a concentration of up to 10 weight per volume percent in 65 volume per volume percent polyethylene glycol 300, 20 volume per volume percent polyethylene glycol 400, and 15 volume per volume percent propylene glycol. In a separate experiment, felbamate was added at a concentration of up to 10 weight per volume percent in 65 volume per volume percent polyethylene glycol 300, 20 volume per volume percent polyethylene glycol 400, 10 volume per volume percent propylene glycol, and 5 volume per volume percent polyethylene glycol 600.
Solutions were heated above 70° C. after which the felbamate dissolved.
Fluorofelbamate was added at a concentration of 10 weight per volume percent to polyethylene glycol 300. Solutions were heated above approximately 80° C. after which the fluorofelbamate dissolved.

[5] = injection of supersaturated solution into 37° C. phosphate buffered saline; assay type: physicochemical
Method: A supersaturated 10 weight per volume percent felbamate solution in PEG 300 was injected into 37° C. phosphate buffered saline. […] Additional felbamate supersaturated solution at the same concentration was added 10 microliters at a time without forming solid particles up to at least 50 microliters.

Sequence of CYP2C19 (P33261 whole entry): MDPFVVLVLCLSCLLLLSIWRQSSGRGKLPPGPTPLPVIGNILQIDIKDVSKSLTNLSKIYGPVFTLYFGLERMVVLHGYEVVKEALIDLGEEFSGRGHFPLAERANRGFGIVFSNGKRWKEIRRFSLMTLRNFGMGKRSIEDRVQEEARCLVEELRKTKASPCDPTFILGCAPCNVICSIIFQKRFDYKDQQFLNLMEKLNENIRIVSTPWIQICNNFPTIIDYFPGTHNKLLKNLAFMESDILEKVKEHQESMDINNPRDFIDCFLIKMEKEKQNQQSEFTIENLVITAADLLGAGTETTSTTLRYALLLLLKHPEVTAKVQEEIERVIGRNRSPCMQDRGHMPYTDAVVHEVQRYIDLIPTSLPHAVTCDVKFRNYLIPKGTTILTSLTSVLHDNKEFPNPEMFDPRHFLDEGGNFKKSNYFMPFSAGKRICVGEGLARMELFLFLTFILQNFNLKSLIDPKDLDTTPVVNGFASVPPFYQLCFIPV

| Compound | effect on CYP2C19 (CYP2C19) | share of aplastic anemia cases that are fatal ([1]; chronic oral dosing) [%] | aplastic anemia after a single administration ([1]; single administration) | particle size by SEM ([2]; glycerin / polysorbate 20 microparticles compared with native powder) | particle form ([2]; same conditions, Span 80 substituted for polysorbate 20) | solubility in water [3] | solution state after heating or cooling ([4]; PEG 300 / PEG 400 sample heated or cooled to 40° C., 4° C., and −20° C. for 30 minutes, then returned to 25° C.) | concentration of samples that remained in solution ([4]; polyethylene glycol 300 and polyethylene glycol 400, heated above 70° C., cooled to room temperature approx. 25°) [weight per volume percent] | time remained in solution ([4]; up to 10 w/v % in 65 v/v % PEG 300, 20 v/v % PEG 400, 10 v/v % propylene glycol, 5 v/v % PEG 600, approx. 25° C.) | time remained in solution ([4]; up to 10 w/v % in 65 v/v % PEG 300, 20 v/v % PEG 400, 15 v/v % propylene glycol, approx. 25° C.) | time remained in solution ([4]; up to approx. 12.5 weight per volume percent in polyethylene glycol 300 and polyethylene glycol 400, room temperature approx. 25°) | volume of additional supersaturated solution added without forming solid particles ([5]; 10 w/v % in PEG 300, added 10 microliters at a time to 37° C. phosphate buffered saline) | solid particles on injection ([5]; supersaturated 10 w/v % solution in PEG 300 injected into 37° C. phosphate buffered saline) | time remained in solution ([4]; 10 w/v % in polyethylene glycol 300, heated above approx. 80° C., cooled to approx. 25°) |
| --- | --- | --- | --- | --- | --- | --- | --- | --- | --- | --- | --- | --- | --- | --- |
| NC(=O)OCC(COC(N)=O)c1ccccc1 [Felbamate] | inhibitor | 30 | has not been shown to develop | hundreds of microns | formed crystals, which are unsuitable for injection | less than one | remained in solution | ≤ 12.5 | at least 1 day | at least 1 day | at least eight | at least 50 microliters | No solid particles were observed | – |
| NC(=O)OCC(F)(COC(N)=O)c1ccccc1 [Fluorofelbamate] | – | – | – | – | – | less than one | – | – | – | – | – | – | – | at least 1 month |
